Data as given in patent EP2050455B1, “Compounds leading to an increase of the IL-12/IL-10 ratio and their use for therapy of infectious and proliferative diseases” (priority 2007, dated 2009).

Columns and labels:
[1] = tested on: MoDC; assay: Surface marker expression / maturation of MoDC by flow cytometry; format: cell-based, Human
Procedure: (§1) The number of living cells was measured by Casy-technology. […] They were analysed for expression of CD14 versus HLA-DR. Morphology was assessed by phase contrast microscopy. […] MoDC were cultured in serum containing media (A) or serum free (B). They were left untreated (black), treated with maturation cocktail as positive control (green), or with 10 nM OspA-LP (red) for 48 hours and analysed by flow cytometry for viability or the expression of CD14, CD1a, CD86/CD80 double positive cells, CD83 and CD197 (CCR7). Data were collected from 4 independent experiments. The results are means ±SD. […] After another 24 hours the cells were analysed for IL-10 production by ELISPOT assay. […] The resulting values are given numbers of spots. […] All LP treated MoDC (red) were compared with untreated MoDC (black). The blue line represents 100 spots per 5x10^4 MoDC. […] They were analysed for IL-10 (left) and IL-12p70 production (right). Shown are 3 independent experiments using cells from different healthy donors. Compared to the untreated controls (black), IL-10 production is not depressed by LPS R60/IFN-γ (red). […] (A) number of cytokine producing cells: IL-10 (black); IL-12p70 (red). (B) ratio of IL-12p70/IL-10 producing cells. […] The resulting cells were analysed for the surface expression of both CD80 and CD86 in dot plot analyses (A), and CD83 histogram overlay (B).
Cytokines GM-CSF (800 IU/ml; Bayer Healthcare Pharmaceutical) plus GMP-certified IL-4 (500 IU/ml; CellGenix, Freiburg, Germany) were added to induce transdifferentiation from monocytes to immature monocyte-derived dendritic cells (iMoDC). After 5-7 days of culture iMoDC were analysed for the surface markers CD1a, CD209 und CD14 using the antibodies listed in the following table. Table
Maturation signals were added, including signals to trigger polarisation. The cells were further cultured for another 2 days.
Alternatively, the maturation phase was split into individual steps: • Step 1: TLR agonists lipopeptides • Step 2: presence of the previous inducers, TLR agonists lipopolysaccharide added in the presence of IFN-γ.

[2] = tested on: IL-10 production of MoDC; assay: IL-10 production by ELISPOT assay (indicator culture); format: cell-based, Human
Procedure: as §1
(§2) This culture imitates the fate of DC after injecting them into an organism and is designed to test the actual production and release of IL-12 and IL-10 during this phase. This is tested by the well-known ELISPOT-assay. For this phase the previous inducers were either sustained or washed out. Also, further inducers were added. Number of spots as well as the intensity of spots could be read out. Therefore, this setup does more realistically reflect the actual functional state of DC at the time of injection and thereafter.

[3] = tested on: IL-12p70 production of MoDC; assay: IL-12p70 production by ELISPOT assay (indicator culture); format: cell-based, Human
Procedure: as §1, §2

[4] = tested on: MoDC; conditions: Nishiguchi et al. (2001); cited from earlier work
[5] = tested on: iMoDC; assay: Phenotype modification: CD14 versus HLA-DR expression and phase contrast morphology; format: cell-based, Human; conditions: non-toxic concentrations, 20-48 hours (Example 3)
Procedure: Human peripheral blood monocytes were prepared by various well-established techniques. • (1) Blood drawing was carried out in the presence of the anticoagulant EDTA, separation of the nucleated cells by combined density/velocity gradient centrifugation, followed by selective adherence in the culture for one hour. The non-attached cells were washed off and the remaining population of highly enriched monocytes was further cultured. • (2) Alternatively, blood cells were recovered by leukapheresis, followed by counterflow elutriation. The highly enriched monocyte fraction was either freeze protected or taken into culture. Cells were cultured in a humidified incubator (37°C, 5% CO2).

[6] = non-toxic concentrations, 20-48 hours (Example 3)

Q: Which “Maturation of MoDC (surface expression of CD80, CD86, CD83)” value ([1]; FSL-1 LP 1 nM, LPS R60 1 µg/ml / IFN-γ 500 IU/ml, single or sequential (Figure 10)) does the source give for FSL-1 here?
A: only incomplete maturation

Q: And the “Costimulatory signals (CD80, CD86)” value [1, 6]?
A: upregulated

Q: What about the “maturation as measured by expression of CD83” value [1, 6] of the same substance?
A: No complete maturation

Q: What about the “IL-10-secretion of immature DC” value ([2]; ELISPOT) of the same substance?
A: down-regulation

Q: What about the IL-10 production ([2]; OspA-LP 10 nM, FSL-1 1 nM, FSL-2 1 nM, alone or combined with IFN-γ (500 IU/ml), 24 hours, vs untreated (Figure 6)) of the same substance?
A: downregulated

Q: And the IL-10 secreting cells ([2]; non-toxic concentrations, 20-48 hours, dose-dependent, donor-independent (Example 3))?
A: decrease

Q: And the IL-12p70 production ([3]; OspA-LP 10 nM, FSL-1 1 nM, FSL-2 1 nM, alone or combined with IFN-γ (500 IU/ml), 24 hours (Figure 6))?
A: remains extremely low

Q: And the “production of IL-12” value ([3]; immature DC)?
A: No effect

Q: What about the IL-12p70 production [3, 6] of the same substance?
A: only poorly stimulated

Q: What about the “Maturation of DC” value [4] of the same substance?
A: incompletely

Q: What about the cell phenotype [5] of the same substance?
A: modification
